Results on 8 compounds are retold here after US7259159B2, “Guanidino derivatives as inhibitors of cell adhesion” (Sanofi-Aventis Deutschland GmbH, priority 2000, dated 2007).

T1 sequence (P06756 31-889 limits assumed): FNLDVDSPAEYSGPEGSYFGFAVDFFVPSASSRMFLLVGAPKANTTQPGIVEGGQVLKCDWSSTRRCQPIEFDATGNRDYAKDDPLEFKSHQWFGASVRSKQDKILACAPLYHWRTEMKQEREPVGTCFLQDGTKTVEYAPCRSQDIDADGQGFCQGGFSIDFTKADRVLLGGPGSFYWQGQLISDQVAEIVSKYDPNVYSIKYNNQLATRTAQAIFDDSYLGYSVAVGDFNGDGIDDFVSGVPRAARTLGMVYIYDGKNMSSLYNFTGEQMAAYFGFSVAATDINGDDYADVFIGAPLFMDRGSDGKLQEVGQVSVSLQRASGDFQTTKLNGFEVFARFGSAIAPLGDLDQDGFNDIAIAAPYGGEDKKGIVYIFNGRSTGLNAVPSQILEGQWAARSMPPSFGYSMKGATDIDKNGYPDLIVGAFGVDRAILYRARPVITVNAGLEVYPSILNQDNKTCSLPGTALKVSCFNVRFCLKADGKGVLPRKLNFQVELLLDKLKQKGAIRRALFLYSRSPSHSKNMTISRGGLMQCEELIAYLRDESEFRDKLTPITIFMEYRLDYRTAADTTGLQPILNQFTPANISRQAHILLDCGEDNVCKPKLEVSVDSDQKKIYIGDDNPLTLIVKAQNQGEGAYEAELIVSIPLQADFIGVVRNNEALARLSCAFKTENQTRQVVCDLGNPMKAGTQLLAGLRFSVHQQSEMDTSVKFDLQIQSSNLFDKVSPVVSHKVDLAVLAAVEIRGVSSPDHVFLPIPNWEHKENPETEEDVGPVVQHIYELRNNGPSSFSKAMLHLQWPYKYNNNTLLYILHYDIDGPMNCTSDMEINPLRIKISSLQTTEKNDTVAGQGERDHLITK
T1 sequence (P06756 891-1048 partner limits assumed): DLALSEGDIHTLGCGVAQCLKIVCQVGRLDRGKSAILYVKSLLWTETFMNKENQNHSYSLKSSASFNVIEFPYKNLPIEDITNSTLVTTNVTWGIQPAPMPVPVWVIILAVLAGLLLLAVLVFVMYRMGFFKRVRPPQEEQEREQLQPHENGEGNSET
T1 sequence (P05106 27-788): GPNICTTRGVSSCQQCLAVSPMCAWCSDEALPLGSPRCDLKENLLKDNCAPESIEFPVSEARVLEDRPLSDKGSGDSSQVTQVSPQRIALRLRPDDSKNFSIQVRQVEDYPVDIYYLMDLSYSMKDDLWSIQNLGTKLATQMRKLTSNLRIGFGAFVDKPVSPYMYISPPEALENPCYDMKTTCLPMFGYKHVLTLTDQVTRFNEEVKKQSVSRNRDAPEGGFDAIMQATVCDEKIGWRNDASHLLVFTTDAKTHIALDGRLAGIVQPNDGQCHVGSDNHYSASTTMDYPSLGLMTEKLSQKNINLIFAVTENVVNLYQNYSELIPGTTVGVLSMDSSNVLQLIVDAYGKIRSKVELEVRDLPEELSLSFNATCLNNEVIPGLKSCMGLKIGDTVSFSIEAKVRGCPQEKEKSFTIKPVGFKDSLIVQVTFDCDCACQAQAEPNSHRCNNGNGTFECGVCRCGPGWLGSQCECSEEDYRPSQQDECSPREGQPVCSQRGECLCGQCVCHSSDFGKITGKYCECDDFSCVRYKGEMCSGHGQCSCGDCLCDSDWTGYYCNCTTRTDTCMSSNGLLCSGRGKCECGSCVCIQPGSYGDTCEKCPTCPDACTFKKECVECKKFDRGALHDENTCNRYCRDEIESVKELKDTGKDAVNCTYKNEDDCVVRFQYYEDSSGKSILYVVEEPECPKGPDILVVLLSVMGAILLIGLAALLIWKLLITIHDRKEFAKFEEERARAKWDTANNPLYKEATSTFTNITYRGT

The first assay has as its target T1, human vitronectin receptor αvβ3 (Homo sapiens, UniProt P05106+P06756).
T1 construct: Human vitronectin receptor was obtained from the human placenta according to the method of Pytela et al; from tissue; host or cells: human placenta
Description: Kistrin binding assay (αvβ3 ELISA test, K/VnR).
Settings: not given
The text has this: The inhibition of the binding of kistrin to human vitronectin receptor (VnR) described below is a test method by which the antagonistic action of the compounds of the invention on the vitronectin receptor αvβ3 can be determined (αvβ3 ELISA Test; the test method is abbreviated as “K/VnR” in the listing of the test results).
Kistrin was purified according to the methods of Dennis et al., as described in Proc. Natl. Acad. Sci. USA 87 (1989) 2471 and Proteins: Structure, Function and Genetics 15 (1993)312.
Purification of Human vitronectin Receptor (αvβ3)
Human vitronectin receptor was obtained from the human placenta according to the method of Pytela et al., Methods Enzymol. 144 (1987) 475. Human vitronectin receptor αvβ3 can also be obtained from some cell lines (for example from 293 cells, a human embryonic kidney cell line) which are co-transfected with DNA sequences for both subunits αv and β3 of the vitronectin receptor. The subunits are extracted with octyl glycoside and then chromatographed through concanavalin A, heparin-Sepharose and S-300.
Murine monoclonal antibodies which are specific for the β3 subunits of the vitronectin receptor, were prepared according to the method of Newman et al., Blood, 1985, 227, or by a similar process. The rabbit Fab 2 anti-mouse Fc conjugate to horseradish peroxidase (anti-mouse Fc HRP) was obtained from Pel Freeze (Catalog No. 715 305-1).
The ability of substances to inhibit the binding of kistrin to the vitronectin receptor can be determined using an ELISA test. For this purpose, Nunc 96-well microtiter plates were coated with a solution of kistrin (0.002 mg/ml) according to the method of Dennis et al., as described in Proteins: Structure, Function and Genetics 15 (1993) 312. The plates were then washed twice with PBS/0.05% Tween-20 and blocked by incubating (60 min) with bovine serum albumin (BSA, 0.5%, RIA grade or better) in buffer solution (Tris-HCl (50 mM), NaCl (100 mM), MgCl2 (1 mM), CaCl2 (1 mM), MnCl2 (1 mM), pH 7). Solutions of known inhibitors and of the test substances were prepared in concentrations from 2×10^−12 to 2×10^−6 mol/l in assay buffer (BSA (0.5%, RIA grade or better); Tris-HCl (50 mM), NaCl (100 mM), MgCl2 (1 mM), CaCl2 (1 mM), MnCl2 (1 mM), pH 7). The blocked plates were emptied, and in each case 0.025 ml of this solution which contains a defined concentration (2×10^−12 to 2×10^−6 mol/l) either of a known inhibitor or of a test substance, were added to each well. 0.025 ml of a solution of the vitronectin receptor in assay buffer (0.03 mg/ml) was pipetted into each well of the plate and the plate was incubated at room temperature for 60-180 min on a shaker. In the meantime, a solution (6 ml/plate) of a murine monoclonal antibody specific for the […] of the vitronectin receptor was prepared in assay buffer (0.0015 mg/ml). A second rabbit antibody (0.001 ml of stock solution/6 ml of the murine monoclonal anti-β3 antibody solution) which is an anti-mouse Fc HRP antibody conjugate was added to this solution, and this mixture of murine anti-β3 antibody and rabbit anti-mouse Fc HRP antibody conjugate was incubated during the time of the receptor-inhibitor incubation. The test plates were washed four times with PBS solution which contains 0.05% Tween-20, and in each case 0.05 ml/well of the antibody mixture was pipefted into each well of the plate and incubated for 60-180 min. The plate was washed four times with PBS/0.05% Tween-20 and then developed with 0.05 ml/well of a PBS solution which contained 0.67 mg/ml of ophenylenediamine and 0.012% of H2O2. Alternatively to this, o-phenylenediamine can be employed in a buffer (pH 5) which contains Na3PO4 and citric acid. The color development was stopped using 1 N H2SO4 (0.05 ml/well). The absorption for each well was measured at 492-405 nm and the data are evaluated by standard methods.
On the technique in general: In an ELISA, binding on a coated surface is turned into a signal by an enzyme label.
Compound `Cc1nc(NC[C@H](NS(=O)(=O)c2cccc3ccccc23)C(=O)O)c2ccn(CCCC(=O)NC3=NCCCN3)c2n1` [Example 3, (2S)-3-{2-Methyl-7-[3-(1,4,5,6-tetrahydro-pyrimidin-2-ylcarbamoyl)-propyl]-7H-pyrrolo[2,3-d]pyrimidin-4-ylamino}-2-(naphthalene-1-sulfonylamino)-propionic acid] had an IC50 of 2.2 nM.

Staying with this assay, now noted: inhibition of the binding of kistrin to human vitronectin receptor (VnR), ELISA; read-out: K/VnR IC50.
For `O=C(CCCn1cnc2c(NC[C@H](NC(=O)OCc3ccccc3)C(=O)O)ncnc21)NC1=NCCCN1` [Example 1, (2S)-2-Benzyloxycarbonylamino-3-{9-[3-(1,4,5,6-tetrahydro-pyrimidin-2-ylcarbamoyl)-propyl]-9H-purin-6-ylamino}-propionic acid], the IC50 came out at 22 nM.

For the compound `Cc1nc(NC[C@H](NC(=O)OCc2ccccc2)C(=O)O)c2ccn(CCCC(=O)NC3=NCCCN3)c2n1` [Example 2, (2S)-2-Benzyloxycarbonylamino-3-{2-methyl-7-[3-(1,4,5,6-tetrahydro-pyrimidin-2-ylcarbamoyl)-propyl]-7H-pyrrolo[2,3-d]pyrimidin-4-ylamino}-propionic acid], the IC50 worked out at 3.5 nM. With `Cc1nc(NC[C@H](NS(=O)(=O)c2ccccc2)C(=O)O)c2ccn(CCCC(=O)NC3=NCCCN3)c2n1` [Example 4, (2S)-3-{2-Methyl-7-[3-(1,4,5,6-tetrahydro-pyrimidin-2-ylcarbamoyl)-propyl]-7H-pyrrolo[2,3-d]pyrimidin-4-ylamino}-2-(benzenesulfonylamino)-propionic acid], the IC50 is 3 nM. In the case of `Cc1nc(NC[C@H](NS(=O)(=O)c2ccc(Br)cc2)C(=O)O)c2ccn(CCCC(=O)NC3=NCCCN3)c2n1` [Example 5, (2S)-3-{2-Methyl-7-[3-(1,4,5,6-tetrahydro-pyrimidin-2-ylcarbamoyl)-propyl]-7H-pyrrolo[2,3-d]pyrimidin-4-ylamino}-2-(4-bromobenzenesulfonylamino)-propionic acid], the IC50 was determined as 2.6 nM. On the same count and under the same terms, the figure for `Cc1nc(SC[C@H](NS(=O)(=O)c2ccc(Br)cc2)C(=O)O)c2ccn(CCCC(=O)NC3=NCCCN3)c2n1` [Example 6, (2R)-3-{2-Methyl-7-[3-(1,4,5,6-tetrahydro-pyrimidin-2-ylcarbamoyl)-propyl]-7H-pyrrolo[2,3-d]pyrimidin-4-ylsulfanyl}-2-(4-bromobenzenesulfonylamino)-propionic acid] is 13.5 nM; for `Cc1nc(SC[C@H](NS(=O)(=O)c2cccc3ccccc23)C(=O)O)c2ccn(CCCC(=O)NC3=NCCCN3)c2n1` [Example 7, (2R)-3-{2-Methyl-7-[3-(1,4,5,6-tetrahydro-pyrimidin-2-ylcarbamoyl)-propyl]-7H-pyrrolo[2,3-d]pyrimidin-4-ylsulfanyl}-2-(naphthalene-1-sulfonylamino)-propionic acid] it is 5 nM. Regarding `Cc1nc(SC[C@H](NS(=O)(=O)c2ccccc2)C(=O)O)c2ccn(CCCC(=O)NC3=NCCCN3)c2n1` [Example 8, (2R)-3-{2-Methyl-7-[3-(1,4,5,6-tetrahydro-pyrimidin-2-ylcarbamoyl)-propyl]-7H-pyrrolo[2,3-d]pyrimidin-4-ylsulfanyl}-2-(benzenesulfonylamino)-propionic acid], the IC50 was 10 nM.
